In patent publication US6908935B2, “Calcium receptor modulating agents” (Amgen Inc., priority 2002, dated 2005) one finds EC50 data, which are given here for 15 compounds.

pEC50: −log10 of the molar value. Some results are limits rather than exact numbers.

For this test, the target named is T1, human parathyroid cell Ca^2+ receptor (hPCaR) (Homo sapiens, UniProt P41180).
T1 construct: expressed in transfected cells
T1 sequence (P41180 20-1078): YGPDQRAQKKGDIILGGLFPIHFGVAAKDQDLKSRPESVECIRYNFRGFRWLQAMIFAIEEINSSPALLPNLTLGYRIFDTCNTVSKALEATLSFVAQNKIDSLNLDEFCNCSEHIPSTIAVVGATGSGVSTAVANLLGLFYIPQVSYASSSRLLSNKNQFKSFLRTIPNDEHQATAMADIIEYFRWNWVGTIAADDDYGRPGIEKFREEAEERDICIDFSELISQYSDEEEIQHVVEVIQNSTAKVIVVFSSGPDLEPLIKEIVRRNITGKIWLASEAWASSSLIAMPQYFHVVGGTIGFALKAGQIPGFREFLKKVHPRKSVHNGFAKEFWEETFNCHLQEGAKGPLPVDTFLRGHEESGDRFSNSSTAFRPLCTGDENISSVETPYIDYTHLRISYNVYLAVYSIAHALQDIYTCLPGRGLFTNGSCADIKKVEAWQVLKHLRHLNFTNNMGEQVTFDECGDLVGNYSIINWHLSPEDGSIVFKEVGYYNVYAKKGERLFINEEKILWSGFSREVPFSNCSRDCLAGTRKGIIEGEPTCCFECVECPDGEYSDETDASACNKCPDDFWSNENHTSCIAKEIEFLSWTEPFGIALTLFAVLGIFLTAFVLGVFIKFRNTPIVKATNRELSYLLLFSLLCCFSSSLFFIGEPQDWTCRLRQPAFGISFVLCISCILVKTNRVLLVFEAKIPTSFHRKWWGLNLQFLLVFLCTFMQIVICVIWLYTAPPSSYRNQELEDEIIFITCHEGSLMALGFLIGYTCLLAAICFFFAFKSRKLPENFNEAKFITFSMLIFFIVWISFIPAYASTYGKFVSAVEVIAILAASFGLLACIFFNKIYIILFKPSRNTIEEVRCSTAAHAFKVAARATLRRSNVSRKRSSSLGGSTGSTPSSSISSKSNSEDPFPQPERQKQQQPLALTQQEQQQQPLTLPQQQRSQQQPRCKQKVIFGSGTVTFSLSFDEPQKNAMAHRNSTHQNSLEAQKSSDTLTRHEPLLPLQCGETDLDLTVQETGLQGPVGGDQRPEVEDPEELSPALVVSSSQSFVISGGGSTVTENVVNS
Description: [Ca2+]i measurement with fluo-3 in HEK 293 4.0-7 cells stably transfected with hPCaR. Format: cell-based. To be noted: fluo-3 fluorescence (485/530 nm), effect on [Ca^2+]i. The procedure, abridged: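 HEK 293 cells stably expressing human parathyroid Ca2+ receptor (clone 4.0-7), loaded with 2 μM fluo-3 AM for 30 min at 37 °C in parathyroid cell buffer (pH 7.45) with 1 mM CaCl2 and 0.5% BSA. After compound addition, intracellular Ca2+ followed by fluorescence at 485 nm excitation/530 nm emission.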
Consider `COc1ccc(CN[C@H](C)c2ccc(C)cc2)cc1-c1nccs1` [(1R)-N-((4-(methyloxy)-3-(1,3-thiazol-2-yl)phenyl)methyl)-1-(4-methylphenyl)ethanamine], for which the negative logarithm of the EC50 (pEC50) was at least 5.00.
The compound `COc1ccc(CN[C@H](C)c2ccccc2)cc1-c1nccs1` [(1R)-N-((4-(methyloxy)-3-(1,3-thiazol-2-yl)phenyl)methyl)-1-phenylethanamine] showed a pEC50 of at least 5.00.
For `COc1ccc(CN[C@H](C)c2cccc3ccccc23)cc1-c1ccc2c(ccn2CC(F)(F)F)c1` [(1R)-N-((4-(methyloxy)-3-(1-(2,2,2-trifluoroethyl)-1H-indol-5-yl)phenyl)methyl)-1-(1-naphthalenyl)ethanamine], the negative-log EC50 (pEC50) was at least 5.00.
`COc1ccc(CN[C@H](C)c2ccccc2)cc1-c1ccc2c(ccn2CC(F)(F)F)c1` [(1R)-N-((4-(methyloxy)-3-(1-(2,2,2-trifluoroethyl)-1H-indol-5-yl)phenyl)methyl)-1-phenylethanamine] had a pEC50 of at least 5.00.
As to `COCC(=O)N1CCC(c2cc(CN[C@H](C)c3cccc4ccccc34)ccc2OC)CC1` [(1R)-N-((4-(methyloxy)-3-(1-((methyloxy)acetyl)-4-piperidinyl)phenyl)methyl)-1-(1-naphthalenyl)ethanamine], the pEC50 was at least 5.00.
The result for `COc1ccc(CN[C@H](C)c2cccc3ccccc23)cc1-c1cnc2c(ccn2C)c1` [(1R)-N-((4-(methyloxy)-3-(1-methyl-1H-pyrrolo[2,3-b]pyridin-5-yl)phenyl)methyl)-1-(1-naphthalenyl)ethanamine] reads at least 5.00; that for `COc1cccc([C@@H](C)NCc2ccc(OC)c(-c3cnc4c(ccn4C)c3)c2)c1` [(1R)-N-((4-(methyloxy)-3-(1-methyl-1H-pyrrolo[2,3-b]pyridin-5-yl)phenyl)methyl)-1-(3-(methyloxy)phenyl)ethanamine], at least 5.00; that for `COc1ccc(CN[C@H](C)c2ccccc2)cc1-c1cnc2c(ccn2C)c1` [(1R)-N-((4-(methyloxy)-3-(1-methyl-1H-pyrrolo[2,3-b]pyridin-5-yl)phenyl)methyl)-1-phenylethanamine], at least 5.00.
`COc1ccc(CN[C@H](C)c2cccc3ccccc23)cc1-c1ccc2c(c1)nc(C(F)(F)F)n2C` [(1R)-N-((4-(methyloxy)-3-(1-methyl-2-(trifluoromethyl)-1H-benzimidazol-5-yl)phenyl)methyl)-1-(1-naphthalenyl)ethanamine] showed a negative logarithm of the EC50 (pEC50) of at least 5.00.
Compound `COc1ccc(CN[C@H](C)c2ccccc2)cc1-c1ccc2c(c1)nc(C(F)(F)F)n2C` [(1R)-N-((4-(methyloxy)-3-(1-methyl-2-(trifluoromethyl)-1H-benzimidazol-5-yl)phenyl)methyl)-1-phenylethanamine] showed a pEC50 of at least 5.00.
For `COc1ccc(CN[C@H](C)c2cccc3ccccc23)cc1C1CCN(C)CC1` [(1R)-N-((4-(methyloxy)-3-(1-methyl-4-piperidinyl)phenyl)methyl)-1-(1-naphthalenyl)ethanamine], the pEC50 was at least 5.00.
The compound `COc1cccc([C@@H](C)NCc2ccc(OC)c(C3CCN(C)CC3)c2)c1` [(1R)-N-((4-(methyloxy)-3-(1-methyl-4-piperidinyl)phenyl)methyl)-1-(3-(methyloxy)phenyl)ethanamine] gave a pEC50 of at least 5.00.
For the compound `COc1ccc(CN[C@H](C)c2cccc3ccccc23)cc1N1CCCC1` [(1R)-N-((4-(methyloxy)-3-(1-pyrrolidinyl)phenyl)methyl)-1-(1-naphthalenyl)ethanamine], the pEC50 is at least 5.00.
The result for `COc1ccc(CN[C@H](C)c2ccccc2)cc1N1CCCC1` [(1R)-N-((4-(methyloxy)-3-(1-pyrrolidinyl)phenyl)methyl)-1-phenylethanamine] reads at least 5.00; that for `COc1ccc(CN[C@H](C)c2cccc3ccccc23)cc1-n1cccc1` [(1R)-N-((4-(methyloxy)-3-(1H-pyrrol-1-yl)phenyl)methyl)-1-(1-naphthalenyl)ethanamine], at least 5.00.

One may read the pEC50 as the EC50 on a negative log10 scale, so that one unit is a factor of ten. Higher therefore signals a low EC50.
